Measurements from ChEMBL document CHEMBL5390284, “Shikimate-Derived Meroterpenoids from the Ascidian-Derived Fungus Amphichorda felina SYSU-MS7908 and Their Anti-Glioma Activity” (J Nat Prod, 2023).
Calls of active or inactive are those of the source. The calls are words filed in the database; no cut-off is given here.

Columns and labels:
U-87 MG = experiment: Antiproliferative activity against human U-87 MG cells assessed as inhibition of cell growth at 100 uM incubated for 48 hrs by MTT assay; assay type: functional
U-251 = experiment: Antiproliferative activity against human U-251 cells assessed as inhibition of cell growth at 100 uM incubated for 48 hrs by MTT assay; assay type: functional
T98G = experiment: Antiproliferative activity against human T98G cells assessed as inhibition of cell growth at 100 uM incubated for 48 hrs by MTT assay; assay type: functional, cell-based

CC(=O)O[C@@H]1C[C@]23O[C@H]2C2=C(C(=O)CC(C)(C)O2)[C@@H](O)[C@@H]3OC1(C)C
Activity (U-87 MG; U-87MG ATCC): inactive
Activity (U-251): inactive
Activity (T98G): inactive

CO[C@@H]1C2=C(OC(C)(C)CC2=O)[C@@H]2O[C@@]23C[C@@H](OC(C)=O)C(C)(C)O[C@@H]13
Activity (U-87 MG; U-87MG ATCC): inactive
Activity (U-251): inactive
Activity (T98G): inactive

CC(=O)O[C@@H]1C[C@]23O[C@H]2[C@]2(O)CC(C)=CC(=O)C2=C[C@@H]3OC1(C)C
Activity (U-87 MG; U-87MG ATCC): inactive
Activity (U-251): inactive
Activity (T98G): inactive

C=C(C)C#C[C@]12O[C@H]1[C@@H]1OC(C)(C)[C@H](OC(C)=O)C[C@@]13O[C@H]3[C@@H]2OC(C)=O
Activity (U-87 MG): >50%
Activity (U-251): >50%

CC(=O)O[C@@H]1Cc2c(cc3c(c2O)OC(C)(C)CC3=O)OC1(C)C
Activity (U-87 MG; U-87MG ATCC): inactive
Activity (U-251): inactive
Activity (T98G): inactive
